Data reported in PMC6833013 (Molecules, 2019).

Key:
Bacillus subtilis MB964 = type: cell-based
A549 = assay: cells; type: cell-based; details: Homo sapiens, A549, 24 h, read-out: IC50 A549
HT29 = assay: cells; type: cell-based; details: Homo sapiens, HT-29, 24 h, read-out: IC50 HT29
Fa2N4 = assay: cells; type: cell-based; details: Homo sapiens, Fa2N-4, 24 h, read-out: IC50 Fa2N4
MCF-7 = assay: cells; type: cell-based; details: Homo sapiens, MCF7, 24 h, read-out: IC50 MCF-7
HepG2 = assay: cells; type: cell-based; details: Homo sapiens, HepG2, 24 h, read-out: IC50 HepG2
RCC4-VHL = assay: cells; type: cell-based; details: Homo sapiens, 24 h, read-out: IC50 RCC4-VHL
RCC4-VA = assay: cells; type: cell-based; details: Homo sapiens, 24 h, read-out: IC50 RCC4-VA

SMILES | B. subtilis MB964 inhibition halo (Bacillus subtilis MB964) | cytotoxic activity in all the cell lines tested (human cell lines) | IC50 (A549) [µg/mL] | IC50 (HT29) [µg/mL] | IC50 (Fa2N4) [µg/mL] | IC50 (MCF-7) [µg/mL] | IC50 (HepG2) [µg/mL] | IC50 (RCC4-VHL) [µg/mL] | IC50 (RCC4-VA) [µg/mL]
CCC(=O)OC1CC2OC3C=C(C)CCC3(C)C1(C)C2(O)CO [Compound 16, (4R,12S)-12-Hydroxy-12-hydroxymethyltrichothec-9-en-4-yl propionate] | no halo | lost all their activity | > 20 | > 20 | > 20 | > 20 | > 20 | > 20 | > 20
CC(=O)OC1CC2OC3C=C(C)CCC3(C)C1(C)C2(O)CO [Compound 3, (4R,12S)-12-Hydroxy-12-(hydroxymethyl)trichothec-9-en-4-yl acetate] | no halo | lost all their activity | > 20 | > 20 | > 20 | > 20 | > 20 | > 20 | > 20
